{"source": "patent US5948931A", "about": "(priority 1997, dated 1999)", "key": {"[1]": {"settings": "about pH 5-8, preferably about pH 6-7"}, "[2]": {"test": "Kinetic measurements of hydrolysis (release of p-nitrophenoxide), effect of Mg2+", "type": "physicochemical", "settings": "for enhancement of hydrolysis rate by MgCl2 (factor): 0.2 M MgCl2, pH 8.5, 25° C.", "text": "Kinetic Measurements of the Hydrolysis of E-19."}, "[3]": {"test": "Stability / hydrolysis-fragmentation of E-16 (anilinium salt E-19) in water", "type": "physicochemical", "settings": "for half-life: read-out: t1/2 of decomposition in H2O (converted)", "experimental": "Stability of E-19. These experiments were carried out in 5 mm glass NMR tubes at 22° C., concentration of E-4 0.1% (w/v)."}, "[4]": {"test": "Kinetics of hydrolysis of PNHDA, dependence on pH and Ni2+", "type": "physicochemical", "design": "K / K': unit not given here", "experimental": "The rates of hydrolysis of p-nitrophenyl(hydroxyimino)-(dihydroxyphosphinyl)acetate (16) were determined with Shimadzu UV-260 spectrophotometer by monitoring appearance of thep-nitrophenol at 400 nm (pH 6-11) and 317 nm (pH 4-5) and disappearance of reactant (16) at 217 nm (pH 4-5). The product spectra were quantitatively identified with those of equivalent concentration of p-nitrophenol under the same conditions. Reaction mixture pH values were measured. at 25 and 50° C. with a Beckman Model 71 pH meter. For non-metal ion-assisted reactions, a few buffer solutions were prepared with EDTA (2×10^-5) as a precaution against trace metal ions in the buffer and salts, but the same results were obtained as with the non-EDTA-containing buffers. Buffers employed were acetate (pH 4.2-5.3), N-ethyl morpholine (pH 6.7-7.8), and borate (pH 8-11). The buffer concentrations were 0.02-0.01 M (no significant catalytic effect). The ionic strength was 0.5-1.0 M, maintained with NaCl.\nTo initiate a kinetic run, 50-100 μl of 19 stock solution (0.002 M in H2 O) was injected into 2-3 ml of reactant solution maintained at the desired temperature. The reactions followed pseudo-first-order kinetics for at least 3 half-lives. Kinetic parameters were calculated with a linear least-squares computer program."}, "[5]": {"test": "Stability of DCHA+ salts 3 heated in different solvents (31P NMR)", "type": "physicochemical", "settings": "conditions similar to refluxing AN", "experimental": "Stability of DCHA^+ Salts 3 Heated in Different Solvents. 40 mg 3 (E or Z) was heated in 5 ml of alcohol mixture, H2 O or acetonitrile. Reaction progress was monitored by ^31 P NMR spectroscopy."}}, "note": "Where a name gives a salt, the structure may show the parent alone. Read-outs that look alike come from different tables or passages of the source."}
{"molecule": "O=C(O)/C(=N\\O)P(=O)(O)O", "note": "[E-7, α-(hydroxyimino)phosphonoacetic acid]", "values": [{"measurement": "phosphorylating activity", "setting": "[1]", "result": "active phosphorylating agent"}]}
{"molecule": "COP(=O)(O)/C(=N/O)C(=O)O", "note": "[E-8, (E)-(hydroxyimino)(hydroxymethoxyphosphinyl)acetic acid]", "values": [{"measurement": "stability in water", "setting": "about pH 7, about 24 hours, room temperature", "result": "stable"}, {"measurement": "methyl phosphate formed", "setting": "pH 1.5", "result": 15, "unit": "%"}, {"measurement": "methyl phosphorocyanidate formed", "setting": "pH 1.5", "result": 85, "unit": "%"}, {"measurement": "rate of E-8→Z-8→15 relative to dissociative fragmentation", "setting": "pH 1.5", "result": "about 6 ×"}, {"measurement": "decomposition", "setting": "pH 1.5, over 2.5 hours", "result": "quantitatively decomposed"}, {"measurement": "reactivity", "setting": "pH 7, 25° C.", "result": "unreactive"}]}
{"molecule": "O=C(Oc1ccc([N+](=O)[O-])cc1)/C(=N\\O)P(=O)(O)O", "note": "[E-16, p-nitrophenyl (E)-(dihydroxyphosphinyl)(hydroxyimino)acetate]", "values": [{"measurement": "rate of release of p-nitrophenoxide vs. p-nitrophenyl acetate (times faster)", "setting": "[2]; 0.2 M MgCl2", "result": 40, "unit": "×"}, {"measurement": "enhancement of hydrolysis rate by MgCl2 (factor)", "setting": "[2]", "result": "2.5 (±0.1)"}, {"measurement": "rate of release of p-nitrophenoxide vs. p-nitrophenyl acetate (times faster)", "setting": "[2]; pH 8.5, 25° C., no Mg2+", "result": 20, "unit": "×"}, {"measurement": "acceleration of p-nitrophenyl ester hydrolysis by (E)-oxime group", "setting": "[2]; qualitative", "result": "several orders of magnitude"}, {"measurement": "phosphate among products", "setting": "[3]; pH 6.5", "result": 92, "unit": "%"}, {"measurement": "phosphorocyanidate among products", "setting": "[3]; pH 6.5", "result": 8, "unit": "%"}, {"measurement": "phosphate among products", "setting": "[3]; pH 8.5", "result": 80, "unit": "%"}, {"measurement": "phosphorocyanidate among products", "setting": "[3]; pH 8.5", "result": 20, "unit": "%"}, {"measurement": "phosphoric acid and methyl phosphate, total", "setting": "[3]; pH 8.5, 1:1 water:methanol", "result": 34, "unit": "%"}, {"measurement": "formation of phosphorocyanidate", "setting": "[3]; pH 8.5, presence of Mg2+", "result": "not observed"}, {"measurement": "hydrolysis rate in words", "setting": "[3]; pH 8.5, presence of Mg2+", "result": "faster"}, {"measurement": "phosphate among products", "setting": "[3]; pH about 3, 52 hr", "result": 100, "unit": "%"}, {"measurement": "degraded at 52 h", "setting": "[3]; water, pH 3, pH about 3, 52 hr, read-out: decomposition in H2O", "result": "< 4", "unit": "%"}, {"measurement": "half-life", "setting": "[3]; water, pH 6.5", "result": "~30", "unit": "h"}, {"measurement": "half-life", "setting": "[3]; water, pH 8.5", "result": "~1", "unit": "h"}, {"measurement": "enhancement of rate by Ni2+ (factor)", "setting": "[4]; 0.01M Ni2+, pH 4.2", "result": 3}, {"measurement": "enhancement of Kobsd by Ni2+ (factor)", "setting": "[4]; 0.01M Ni2+, pH 6.5", "result": 28}, {"measurement": "enhancement of Kobsd by Ni2+ (factor)", "setting": "[4]; 0.01M Ni2+, pH 7.4", "result": 20}, {"measurement": "Ni2+ concentration with saturation effect on Kobsd", "setting": "[4]; constant pH", "result": 7, "unit": "mM"}, {"measurement": "K", "setting": "[4]; pH 4.2, Ni = 0.01M, 50° C.", "result": 0.015}, {"measurement": "log (k)", "setting": "[4]; pH 4.2, Ni = 0.01M, 50° C.", "result": -1.824}, {"measurement": "K", "setting": "[4]; pH 4.2, no metal ion, 50° C.", "result": 0.0049}, {"measurement": "log (k)", "setting": "[4]; pH 4.2, no metal ion, 50° C.", "result": -2.311}, {"measurement": "K", "setting": "[4]; pH 5.2, no metal ion, 50° C.", "result": 0.0156}, {"measurement": "K'", "setting": "[4]; pH 5.2, no metal ion, 50° C.", "result": 0.0165}, {"measurement": "log (K')", "setting": "[4]; pH 5.2, no metal ion, 50° C.", "result": -1.78}, {"measurement": "log (k)", "setting": "[4]; pH 5.2, no metal ion, 50° C.", "result": -1.807}, {"measurement": "K", "setting": "[4]; pH 6.5, Ni = 0.01M, 50° C.", "result": 0.31}, {"measurement": "log (k)", "setting": "[4]; pH 6.5, Ni = 0.01M, 50° C.", "result": -0.509}, {"measurement": "K", "setting": "[4]; pH 6.5, no metal ion, 50° C.", "result": 0.011}, {"measurement": "K'", "setting": "[4]; pH 6.5, no metal ion, 50° C.", "result": 0.009}, {"measurement": "log (K')", "setting": "[4]; pH 6.5, no metal ion, 50° C.", "result": -2.05}, {"measurement": "log (k)", "setting": "[4]; pH 6.5, no metal ion, 50° C.", "result": -1.959}, {"measurement": "K", "setting": "[4]; pH 7.4, Ni = 0.01M, 50° C.", "result": 1.127}, {"measurement": "K'", "setting": "[4]; pH 7.4, Ni = 0.01M, 50° C.", "result": 1.1}, {"measurement": "log (K')", "setting": "[4]; pH 7.4, Ni = 0.01M, 50° C.", "result": 0.041}, {"measurement": "log (k)", "setting": "[4]; pH 7.4, Ni = 0.01M, 50° C.", "result": 0.052}, {"measurement": "K", "setting": "[4]; pH 7.4, no metal ion, 50° C.", "result": 0.0563}, {"measurement": "K'", "setting": "[4]; pH 7.4, no metal ion, 50° C.", "result": 0.0605}, {"measurement": "log (K')", "setting": "[4]; pH 7.4, no metal ion, 50° C.", "result": -1.22}, {"measurement": "log (k)", "setting": "[4]; pH 7.4, no metal ion, 50° C.", "result": -1.249}, {"measurement": "K", "setting": "[4]; pH 8.5, no metal ion, 25° C.", "result": 0.052}, {"measurement": "K'", "setting": "[4]; pH 8.5, no metal ion, 25° C.", "result": 0.05635}, {"measurement": "log (K')", "setting": "[4]; pH 8.5, no metal ion, 25° C.", "result": -1.249}, {"measurement": "log (k)", "setting": "[4]; pH 8.5, no metal ion, 25° C.", "result": -1.288}, {"measurement": "K", "setting": "[4]; pH 9, no metal ion, 25° C.", "result": 0.101}, {"measurement": "K'", "setting": "[4]; pH 9, no metal ion, 25° C.", "result": 0.101}, {"measurement": "log (K')", "setting": "[4]; pH 9, no metal ion, 25° C.", "result": -0.996}, {"measurement": "log (k)", "setting": "[4]; pH 9, no metal ion, 25° C.", "result": -0.997}, {"measurement": "K", "setting": "[4]; pH 9.5, no metal ion, 25° C.", "result": 0.33}, {"measurement": "K'", "setting": "[4]; pH 9.5, no metal ion, 25° C.", "result": 0.33}, {"measurement": "log (K')", "setting": "[4]; pH 9.5, no metal ion, 25° C.", "result": -0.481}, {"measurement": "log (k)", "setting": "[4]; pH 9.5, no metal ion, 25° C.", "result": -0.481}, {"measurement": "K", "setting": "[4]; pH 10, no metal ion, 25° C.", "result": 0.629}, {"measurement": "K'", "setting": "[4]; pH 10, no metal ion, 25° C.", "result": 0.603}, {"measurement": "log (K')", "setting": "[4]; pH 10, no metal ion, 25° C.", "result": -0.22}, {"measurement": "log (k)", "setting": "[4]; pH 10, no metal ion, 25° C.", "result": -0.201}, {"measurement": "K", "setting": "[4]; pH 11, no metal ion, 25° C.", "result": 1.2}, {"measurement": "K'", "setting": "[4]; pH 11, no metal ion, 25° C.", "result": 1.249}, {"measurement": "log (K')", "setting": "[4]; pH 11, no metal ion, 25° C.", "result": 0.0966}, {"measurement": "log (k)", "setting": "[4]; pH 11, no metal ion, 25° C.", "result": 0.079}, {"measurement": "hydroxide dependence of hydrolysis", "setting": "[4]; pH<7", "result": "independent of hydroxide ion concentrations"}, {"measurement": "hydroxide dependence of hydrolysis", "setting": "[4]; pH>8", "result": "hydroxide ion catalyzed"}, {"measurement": "slope of log Kobsd vs pH", "setting": "[4]; pH>8", "result": 0.8}]}
{"molecule": "O=C(Oc1ccc([N+](=O)[O-])cc1)/C(=N\\O)P(=O)(O)O", "note": "[E-19, Anilinium Salt of p-Nitrophenyl (E)-(Hydroxyimino)(dihydroxyphophinyl)acetate]", "values": [{"measurement": "reaction order of hydrolysis", "setting": "[2]; pH 8.5, 25° C.", "result": "pseudo-first order"}, {"measurement": "storage stability", "setting": "[3]; anilinium salt, storage", "result": "stable to storage"}]}
{"molecule": "COP(=O)(O)C(=NO)c1ccccc1", "note": "[methyl α-(hydroxyimino)benzylphosphonate anion, reference compound]", "values": [{"measurement": "thermal stability", "setting": "[5]", "result": "thermally stable"}]}
{"molecule": "CC(=O)Oc1ccc([N+](=O)[O-])cc1", "note": "[p-nitrophenyl acetate, reference compound]", "values": [{"measurement": "enhancement of hydrolysis rate by MgCl2 (factor)", "setting": "[2]", "result": "not altered significantly"}, {"measurement": "reaction order of hydrolysis", "setting": "[2]; pH 8.5, 25° C.", "result": "pseudo-first order"}]}
